pIC50: −log10 of the molar value. ≈ marks a conversion by molar mass, not a printed value. Calls of active or inactive are those of the source. No cut-off for these calls is given here.
Assays:
[1] = molecular target: T1, UDP-3-O-acyl-N-acetylglucosamine deacetylase (Pseudomonas aeruginosa (strain ATCC 15692 / PAO1 / 1C / PRS 101 / LMG12228), UniProt P47205); test: Inhibition of histidine-tagged Pseudomonas aeruginosa LpxC (1-303) expressed in Escherichia coli BL21 (DE3) using UDP-3-O-(R-3-hydroxydecanoyl)-N-acetylglucosamine as substrate measured after 60 mins by Fluorescence plate reader analysis
T1 sequence (P47205 whole entry): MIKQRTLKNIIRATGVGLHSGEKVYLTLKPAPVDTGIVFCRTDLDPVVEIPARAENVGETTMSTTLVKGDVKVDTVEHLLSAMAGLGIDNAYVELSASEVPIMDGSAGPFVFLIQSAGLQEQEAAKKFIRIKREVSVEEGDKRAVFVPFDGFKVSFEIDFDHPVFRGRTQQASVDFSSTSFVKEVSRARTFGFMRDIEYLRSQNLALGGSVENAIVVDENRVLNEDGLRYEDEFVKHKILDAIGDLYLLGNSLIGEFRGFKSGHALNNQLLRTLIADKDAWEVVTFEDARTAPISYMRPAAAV

[2] = molecular target: T1, UDP-3-O-acyl-N-acetylglucosamine deacetylase; test: Displacement of (S)-N-(2-(N-(3-biphenyl-4-ylcarboxamido-4-(hydroxyamino)-4-oxobutyl)sulfamoyl)ethyl)-3',6'-dihydroxy-3-oxo-3H-spiro[isobenzofuran-1,9'-xanthene]-5-carboxamide fluorescent probe from histidine tagged Pseudomonas aeruginosa LpxC (1-303) expressed in Escherichia coli BL21 (DE3) preincubated for 30 mins followed by addition of fluorscein probe measured after 2 hrs by fluorescence …
[3] = molecular target: T1, UDP-3-O-acyl-N-acetylglucosamine deacetylase; test: Inhibition of histidine-tagged Pseudomonas aeruginosa LpxC (1-303) expressed in Escherichia coli BL21 (DE3) using UDP-3-O-(R-3-hydroxydecanoyl)-N-acetylglucosamine as substrate measured after 60 mins by LC-MS/MS analysis
Pseudomonas aeruginosa [4] = test: Antibacterial activity against Pseudomonas aeruginosa 5567 in presence of human serum albumin by CLSI method; format: functional
Escherichia coli [5] = test: Antibacterial activity against Escherichia coli ATCC 25922 by CLSI method; format: functional
Klebsiella pneumoniae = test: Antibacterial activity against Klebsiella pneumoniae ATCC 13883 by CLSI method; format: functional
Pseudomonas aeruginosa [6] = test: Antibacterial activity against Pseudomonas aeruginosa ATCC 27853 by CLSI method; format: functional
Pseudomonas aeruginosa [7] = test: Antibacterial activity against Pseudomonas aeruginosa 5567 in absence of human serum albumin by CLSI method; format: functional
[8] = molecular target: Matrix metalloproteinase-9 (Homo sapiens, UniProt P14780); test: Inhibition of human MMP-9 by fluorometric assay
[9] = molecular target: 72 kDa type IV collagenase (Homo sapiens, UniProt P08253); test: Inhibition of human MMP-2 by fluorometric assay
Stromelysin-1 = Stromelysin-1 (Homo sapiens, UniProt P08254); test: Inhibition of human MMP-3 by fluorometric assay
Escherichia coli [10] = test: Antibacterial activity against Escherichia coli ATCC 25922 in presence of efflux pump inhibitor phenylalanine-arginine beta-naphthylamideby CLSI method; format: functional
Pseudomonas aeruginosa [11] = test: Antibacterial activity against Pseudomonas aeruginosa ATCC 27853 in presence of efflux pump inhibitor phenylalanine-arginine beta-naphthylamide by CLSI method; format: functional

Sequence of 72 kDa type IV collagenase (P08253 whole entry): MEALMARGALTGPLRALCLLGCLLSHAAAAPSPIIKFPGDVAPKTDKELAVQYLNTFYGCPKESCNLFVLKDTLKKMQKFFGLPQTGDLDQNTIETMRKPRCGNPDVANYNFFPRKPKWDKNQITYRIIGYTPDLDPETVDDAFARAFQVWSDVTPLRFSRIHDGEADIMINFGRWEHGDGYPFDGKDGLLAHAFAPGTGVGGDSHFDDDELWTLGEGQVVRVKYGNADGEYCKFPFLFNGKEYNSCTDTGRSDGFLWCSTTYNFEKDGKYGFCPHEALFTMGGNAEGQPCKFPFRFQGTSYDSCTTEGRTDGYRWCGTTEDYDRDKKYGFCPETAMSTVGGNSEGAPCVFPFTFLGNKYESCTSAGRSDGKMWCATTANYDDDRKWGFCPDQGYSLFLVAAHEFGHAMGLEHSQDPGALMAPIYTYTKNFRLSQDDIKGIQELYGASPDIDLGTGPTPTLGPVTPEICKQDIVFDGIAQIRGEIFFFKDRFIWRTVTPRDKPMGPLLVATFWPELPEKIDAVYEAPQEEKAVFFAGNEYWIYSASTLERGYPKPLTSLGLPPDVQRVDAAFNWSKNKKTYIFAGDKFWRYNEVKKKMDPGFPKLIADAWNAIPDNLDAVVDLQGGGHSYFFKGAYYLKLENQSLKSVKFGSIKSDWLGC
Sequence of Matrix metalloproteinase-9 (P14780 whole entry): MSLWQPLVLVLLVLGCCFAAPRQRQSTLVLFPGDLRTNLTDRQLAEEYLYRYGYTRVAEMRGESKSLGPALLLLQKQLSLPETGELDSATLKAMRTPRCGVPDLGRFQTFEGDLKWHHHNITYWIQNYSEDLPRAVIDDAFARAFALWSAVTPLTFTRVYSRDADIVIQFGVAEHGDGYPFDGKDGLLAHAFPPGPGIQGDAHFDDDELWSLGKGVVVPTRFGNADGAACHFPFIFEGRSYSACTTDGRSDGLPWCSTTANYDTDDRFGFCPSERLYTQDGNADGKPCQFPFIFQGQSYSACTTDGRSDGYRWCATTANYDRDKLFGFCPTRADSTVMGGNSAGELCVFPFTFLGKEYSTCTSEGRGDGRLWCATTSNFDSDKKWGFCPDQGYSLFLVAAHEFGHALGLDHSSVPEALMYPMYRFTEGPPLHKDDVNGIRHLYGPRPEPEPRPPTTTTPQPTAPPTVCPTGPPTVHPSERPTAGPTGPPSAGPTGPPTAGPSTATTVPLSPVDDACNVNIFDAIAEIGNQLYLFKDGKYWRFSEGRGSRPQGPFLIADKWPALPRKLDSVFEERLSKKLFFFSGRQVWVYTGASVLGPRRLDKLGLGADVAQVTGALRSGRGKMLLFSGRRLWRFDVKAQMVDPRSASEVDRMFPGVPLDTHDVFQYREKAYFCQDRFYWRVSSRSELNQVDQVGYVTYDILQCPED
Sequence of Stromelysin-1 (P08254 whole entry): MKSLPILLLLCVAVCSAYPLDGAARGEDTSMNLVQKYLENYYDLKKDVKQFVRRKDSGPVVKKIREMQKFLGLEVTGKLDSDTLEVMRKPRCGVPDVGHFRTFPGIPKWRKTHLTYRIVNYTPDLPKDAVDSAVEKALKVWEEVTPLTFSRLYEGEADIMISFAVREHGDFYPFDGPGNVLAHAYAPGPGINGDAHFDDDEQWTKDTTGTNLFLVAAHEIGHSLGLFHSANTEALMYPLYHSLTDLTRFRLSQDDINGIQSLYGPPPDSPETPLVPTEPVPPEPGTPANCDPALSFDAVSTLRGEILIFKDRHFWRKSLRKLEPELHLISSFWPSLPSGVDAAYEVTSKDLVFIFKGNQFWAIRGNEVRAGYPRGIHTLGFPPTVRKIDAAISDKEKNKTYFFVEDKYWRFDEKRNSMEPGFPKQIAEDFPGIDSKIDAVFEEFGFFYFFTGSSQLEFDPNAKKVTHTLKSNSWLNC

SMILES: Clc1ccc(CCCn2ccnc2)cc1
- pIC50 [1]: 3.95
- pIC50 [2]: 3.90

SMILES: CS(=O)(=O)NC[C@@H](N)C(=O)Nc1cccc(OC(F)(F)F)c1
- pIC50 [2]: 4.42
- pIC50 [3]: 4.36

SMILES: C[C@H](O)c1nccn1Cc1cc(C#Cc2ccc(CCCO)cc2)on1
- pIC50 [1]: 8.39
- MIC (Pseudomonas aeruginosa [4]): > 64 µg/mL
- MIC (Escherichia coli [5]): 0.5 µg/mL (≈ 1.42 µM)
- MIC (Klebsiella pneumoniae): 2 µg/mL (≈ 5.69 µM)
- MIC (Pseudomonas aeruginosa [6]): 32 µg/mL (≈ 91.1 µM)
- MIC (Pseudomonas aeruginosa [7]): 16 µg/mL (≈ 45.5 µM)

SMILES: OC(COc1ccccc1)Cn1ccnc1 (racemic)
- pIC50 [1]: 2.95
- pIC50 [2]: < 2.70

SMILES: N[C@H](CO)C(=O)N1CCC(Cc2ccc(CCc3ccccc3)cc2)CC1
- pIC50 [3]: 5.34

SMILES: Clc1ccc(OCCCn2ccnc2)cc1
- pIC50 [1]: 3.84
- pIC50 [2]: 3.93

SMILES: CC(O)c1nccn1CCCc1ccc(-c2ccccc2)cc1 (racemic)
- pIC50 [1]: 6.88
- pIC50 [2]: 7.57

SMILES: CC(O)c1nccn1CCCc1ccc(Cl)cc1 (racemic)
- pIC50 [1]: 4.98
- pIC50 [2]: 6.09

SMILES: C[C@H](O)c1nccn1Cc1cc(C#Cc2ccc(OCC(N)(CO)CO)cc2)on1
- pIC50 [1]: 7.70
- MIC (Pseudomonas aeruginosa [4]): 8 µg/mL
- MIC (Escherichia coli [5]): 16 µg/mL (≈ 38.8 µM)
- MIC (Klebsiella pneumoniae): 64 µg/mL (≈ 155 µM)
- MIC (Pseudomonas aeruginosa [6]): 4 µg/mL (≈ 9.7 µM)
- pIC50 [8]: < 4.00
- pIC50 [9]: < 4.00
- MIC (Pseudomonas aeruginosa [7]): 4 µg/mL (≈ 9.7 µM)
- pIC50 (Stromelysin-1): < 4.00

SMILES: CC(O)c1nccn1Cc1cc(-c2ccccc2)on1 (racemic)
- pIC50 [1]: 6.05
- pIC50 [2]: 6.90

SMILES: C[C@@H](O)c1nccn1Cc1cc(C#Cc2ccc(CCCO)cc2)on1
- pIC50 [1]: 5.85
- MIC (Pseudomonas aeruginosa [4]): > 128 µg/mL
- MIC (Escherichia coli [5]): > 128 µg/mL
- MIC (Klebsiella pneumoniae): > 128 µg/mL
- MIC (Pseudomonas aeruginosa [6]): > 128 µg/mL
- MIC (Pseudomonas aeruginosa [7]): > 128 µg/mL

SMILES: CC(O)c1nccn1CCc1ccc(C#Cc2ccccc2)cc1 (racemic)
- pIC50 [1]: 5.62
- pIC50 [2]: 5.75

SMILES: CC(O)c1nccn1CCCc1ccc(C#Cc2ccccc2)cc1 (racemic)
- pIC50 [1]: 6.79
- pIC50 [2]: 7.28

SMILES: OCc1nccn1CCCc1ccc(Cl)cc1
- pIC50 [1]: 3.97
- pIC50 [2]: 4.44

SMILES: CC(O)c1nccn1Cc1ccc(Cl)cc1 (racemic)
- pIC50 [1]: 3.67
- pIC50 [2]: 4.40

SMILES: CC(O)c1nccn1CCc1ccc(Cl)cc1 (racemic)
- pIC50 [1]: 3.58
- pIC50 [2]: 4.17

SMILES: CS(=O)(=O)C[C@@H](N)C(=O)Nc1cccc(OC(F)(F)F)c1
- pIC50 [2]: < 4.00
- pIC50 [3]: < 4.00

SMILES: N[C@H](CC(=O)O)C(=O)Nc1cccc(OC(F)(F)F)c1
- pIC50 [2]: 5.24
- pIC50 [3]: 4.95

SMILES: CC(O)c1nccn1Cc1ccc(C#Cc2ccccc2)cc1 (racemic)
- pIC50 [1]: 6.25
- pIC50 [2]: 7.03
- Activity (Escherichia coli [10]): inactive

SMILES: N[C@H](CO)C(=O)N1CCC(Cc2ccc(C#Cc3ccccc3)cc2)CC1
- pIC50 [3]: 7.47

SMILES: Clc1ccc(CCCCn2ccnc2)cc1
- pIC50 [1]: 4.22
- pIC50 [2]: 4.36

SMILES: OC(COc1ccc(Cl)cc1)Cn1ccnc1 (racemic)
- pIC50 [1]: 3.33
- pIC50 [2]: 3.59

SMILES: CNC(=O)[C@H](Cc1c[nH]c2ccccc12)NC(=O)[C@@H](CC(=O)NO)CC(C)C [ILOMASTAT]
- pIC50 (Stromelysin-1): 7.82

SMILES: Clc1ccc(CCn2ccnc2)cc1
- pIC50 [2]: 2.56

SMILES: CC(O)c1nccn1Cc1cc(C#Cc2ccccc2)on1 (racemic)
- pIC50 [1]: 7.32
- pIC50 [2]: 7.69
- MIC (Pseudomonas aeruginosa [4]): > 128 µg/mL
- MIC (Escherichia coli [5]): 16 µg/mL (≈ 54.5 µM)
- MIC (Klebsiella pneumoniae): 32 µg/mL (≈ 109 µM)
- MIC (Pseudomonas aeruginosa [6]): > 128 µg/mL
- MIC (Pseudomonas aeruginosa [7]): 64 µg/mL (≈ 218 µM)

SMILES: CS(=O)(=O)CC[C@@H](N)C(=O)Nc1cccc(OC(F)(F)F)c1
- pIC50 [2]: 5.05
- pIC50 [3]: 5.00

SMILES: C[C@H](O)c1nccn1Cc1cc(C#Cc2ccc(OCCCNCCN)cc2)on1
- pIC50 [1]: 8.15
- MIC (Pseudomonas aeruginosa [4]): 16 µg/mL
- MIC (Escherichia coli [5]): 2 µg/mL (≈ 4.88 µM)
- MIC (Klebsiella pneumoniae): 32 µg/mL (≈ 78.1 µM)
- MIC (Pseudomonas aeruginosa [6]): 2 µg/mL (≈ 4.88 µM)
- MIC (Pseudomonas aeruginosa [7]): 4 µg/mL (≈ 9.77 µM)

SMILES: N[C@H](CO)C(=O)N1CCC(Cc2ccccc2)CC1
- pIC50 [3]: 4.60

SMILES: CC(O)c1nccn1Cc1ccc(-c2ccccc2)cc1 (racemic)
- pIC50 [1]: 5.40
- pIC50 [2]: 6.26

SMILES: CC(O)c1nccn1CCc1ccc(-c2ccccc2)cc1 (racemic)
- pIC50 [1]: 4.98
- pIC50 [2]: 5.19

SMILES: C[C@H](O)c1nccn1Cc1cc(C#Cc2ccc(OCCCNC3COC3)cc2)on1
- pIC50 [1]: 8.33
- MIC (Pseudomonas aeruginosa [4]): 64 µg/mL
- MIC (Escherichia coli [5]): 1 µg/mL (≈ 2.37 µM)
- MIC (Klebsiella pneumoniae): 1 µg/mL (≈ 2.37 µM)
- MIC (Pseudomonas aeruginosa [6]): 8 µg/mL (≈ 18.9 µM)
- MIC (Pseudomonas aeruginosa [7]): 8 µg/mL (≈ 18.9 µM)

SMILES: N[C@H](CO)C(=O)N1CCC(Cc2ccc(-c3ccccc3)cc2)CC1
- pIC50 [3]: 6.18

SMILES: NCC(=O)Nc1cccc(OC(F)(F)F)c1
- pIC50 [2]: 4.26
- pIC50 [3]: 4.38

SMILES: CC(O)c1nccn1Cc1cc(C#Cc2ccc(CCCO)cc2)on1 (racemic)
- pIC50 [1]: 8.05
- MIC (Pseudomonas aeruginosa [4]): > 128 µg/mL
- MIC (Escherichia coli [5]): 2 µg/mL (≈ 5.69 µM)
- MIC (Klebsiella pneumoniae): 4 µg/mL (≈ 11.4 µM)
- MIC (Pseudomonas aeruginosa [6]): 64 µg/mL (≈ 182 µM)
- MIC (Pseudomonas aeruginosa [7]): 32 µg/mL (≈ 91.1 µM)

SMILES: NC[C@@H](N)C(=O)Nc1cccc(OC(F)(F)F)c1
- pIC50 [2]: 4.40
- pIC50 [3]: 4.44

SMILES: C[C@H](O)c1nccn1Cc1cc(C#Cc2ccc(OC3CN(CCO)C3)cc2)on1
- pIC50 [1]: 8.35
- MIC (Pseudomonas aeruginosa [4]): 16 µg/mL
- MIC (Escherichia coli [5]): 4 µg/mL (≈ 9.79 µM)
- MIC (Klebsiella pneumoniae): 4 µg/mL (≈ 9.79 µM)
- MIC (Pseudomonas aeruginosa [6]): 4 µg/mL (≈ 9.79 µM)
- MIC (Pseudomonas aeruginosa [7]): 4 µg/mL (≈ 9.79 µM)

SMILES: N[C@H](CO)C(=O)N1CCC(Cc2ccc(C#Cc3ccc(CO)cc3)cc2)CC1
- pIC50 [3]: 7.66
- MIC (Pseudomonas aeruginosa [11]): 32 µg/mL
- MIC (Escherichia coli [5]): > 32 µg/mL
- MIC (Pseudomonas aeruginosa [6]): > 32 µg/mL
- MIC (Escherichia coli [10]): 16 µg/mL

SMILES: CS(=O)(=O)C[C@H](O)[C@@H](N)C(=O)N1CCC(Cc2ccc(C#Cc3ccc(CO)cc3)cc2)CC1 (racemic)
- MIC (Pseudomonas aeruginosa [11]): 8 µg/mL
- MIC (Escherichia coli [5]): 64 µg/mL (≈ 132 µM)
- MIC (Pseudomonas aeruginosa [6]): 64 µg/mL (≈ 132 µM)
- MIC (Escherichia coli [10]): 1 µg/mL
- pIC50 [8]: < 4.00
- pIC50 [9]: < 4.00
- pIC50 (Stromelysin-1): < 4.00

SMILES: O=C(NO)[C@@H](Cc1ccc2ccccc2c1)NS(=O)(=O)c1ccc2ccccc2c1
- pIC50 [8]: 7.01
- pIC50 [9]: 7.76
- pIC50 (Stromelysin-1): 6.38

Reference: ChEMBL document CHEMBL4673300, “Fragment-Based Discovery of Novel Non-Hydroxamate LpxC Inhibitors with Antibacterial Activity” (J Med Chem, 2020)
